Test results reported in patent publication US10899756B2, “Phosphodiesterase inhibitors and uses thereof” (The Trustees of Columbia University in the City of New York, priority 2013, dated 2021).
Like-named read-outs stand apart in the source and are kept apart here.

Experiments:
[1] = tested on: LTP in hippocampal slices of APP/PS1 mice; assay: Long-term potentiation in hippocampal slices, compound through the bath perfusion; conditions: 50 nM bath perfusion
[2] = tested on: LTP in hippocampal slices of APP/PS1 mice; assay: Long-term potentiation in slices after 3 weeks daily i.p. treatment and 9-12 weeks without treatment; format: in vivo; conditions: 3 mg/kg/day i.p. for 3 weeks from 3 months of age, treatment stopped 9-12 weeks prior to testing
Protocol: Transverse hippocampal slices (400 μm) were cut with a tissue chopper (EMS, PA) and maintained in an interface chamber at 29° C. for 90 min prior to recording, as described in Vitolo et al, Proc. Natl. Acad. Sci. USA 2002, 13217-13221, herein incorporated by reference in its entirety. The extracellular bath solution consisted of 124.0 mM NaCl, 4.4 mM KCl, 1.0 mM Na2HPO4, 25.0 mM NaHCO3, 2.0 mM CaCl2, 2.0 mM MgSO4, and 10.0 mM glucose, continuously aerated with 95% O2/5% CO2 to a final pH of 7.4. Field extracellular postsynaptic responses (fEPSPs) were recorded by placing the stimulating and recording electrodes in CA1 stratum radiatum. […] Basal synaptic transmission was first assessed by plotting the stimulus voltages (V) against slopes of fEPSP to generate input-output relations. A 20-30 min baseline was first recorded every minute at an intensity that evoked a response at approximately 35% of the maximum evoked response. […] Responses were measured as fEPSP slopes expressed as percentage of baseline.
Slices from transgenic mice treated with the compound had 226.23%±6.72 potentiation compared to 164.12%±10.37 in slices from vehicle-treated transgenic mice (FIG. 3). Residual potentiation recorded during the last 5 minutes of a 2 hr recording following tetanic stimulation of the Schaffer collateral fibers at the CA3-CA1 connection.

APP/PS1 mice [3] = assay: 2-day radial arm water maze (reference memory); format: in vivo
Protocol: The radial arm water maze task, a hybrid of the classic Morris Water Maze and the radial arm land maze, was performed as described in J. Alamed, D. M. Wilcock, D. M. Diamond, M. N. Gordon, D. Morgan, Two-day radial-arm water maze learning and memory task; robust resolution of amyloid-related memory deficits in transgenic mice, Nat. Prot. 1 (2006) 1671-1679, herein incorporated by reference in its entirety. The mouse had to swim in 6 alleys (arms) radiating from a central area until it found a hidden (submerged) platform at the end of one of the arms, based on visual cues placed in the room. The first day of the protocol was a training day on which mice were trained to identify the platform location by alternating between a visible and a hidden platform in a goal arm. The final 3 trials on that day and all 15 trials on day 2 used a hidden escape platform to force mice to use spatial cues to identify the location of the goal arm. […] The number of incorrect arm entries (entries to arms with no platform) was counted. […] Failure to select an arm after 15 sec was counted as an error and the mouse was returned to the start arm. […] For data analysis, averages for each mouse were calculated using blocks of 3 trials. […]

APP/PS1 mice [4] = assay: Contextual fear conditioning (fear memory); format: in vivo
Protocol: Fear conditioning was assessed as described in B. Gong, O. V. Vitolo, F. Trinchese, S. Liu, M. Shelanski, O. Arancio, Persistent improvement in synaptic and cognitive functions in an Alzheimer mouse model after rolipram treatment, J. Clin. Invest. 114 (2004) 1624-1634; F. Trinchese, S. Liu, F. Battaglia, S. Walter, P. M. Mathews, O. Arancio, Progressive age-related development of Alzheimer-like pathology in APP/PS1 mice, Ann. Neurol. 55 (2004) 801-814; and B. Gong, Z. Cao, P. Zheng, O. V. Vitolo, S. Liu, A. Staniszewski, D. Moolman, H. Zhang, M. Shelanski, O. Arancio, Ubiquitin hydrolase Uch-L1 rescues beta-amyloid-induced decreases in synaptic function and contextual memory, Cell 126 (2006) 775-788; each herein incorporated by reference in its entirety. […] Freezing behavior, defined as the absence of movements except for respiratory excursions, was scored using Freezeview software (Med Associates, St. Albans, Vt.). Contextual fear learning was evaluated 24 hrs after training by measuring freezing responses for 5 min in the same chamber where the mice were trained. Cued fear learning was evaluated 24 hrs after contextual testing. The mice were placed in a novel context for 2 min (pre-CS test), after which they were given a CS for 3 min (CS test), and freezing behavior was measured during the first 30 sec that mimic the CS-US conditioning and the remaining 2.5 min. […]

[5] = Pharmacokinetic study, brain and plasma; format: in vivo, C57B16 mice; conditions: 25 mg/kg i.p., mice; for half-life: read-out: t½ (elimination half-life) (converted)
[6] = Acute toxicity study with histology; format: in vivo; conditions: 120 or 240 mg/kg, i.p.
Source text: Brain, muscle, kidney, and liver were harvested from each mouse, and tissue from each organ was examined histologically by a board-certified pathologist for signs of toxicity.

[7] = Metabolite formation (H versus D substitution); format: in vitro ADME; conditions: substitution of H with D; instead of three
APP/PS1 mice [8] = assay: Preliminary studies with sildenafil in APP/PS1 mice; format: in vivo; conditions: persist beyond the administration of the inhibitor
[9] = 3-4 month old APP/PS1 mice, 3 mg/kg i.p. for 3 weeks
[10] = APP/PS1 mice, 3 mg/kg/day i.p. for 3 weeks at 3-4 months, treatment stopped 9-12 weeks, examined at 6-7 months

COc1ccc(CNc2c3c(nc4ccc(C#N)cc24)CCN(C(C)=O)C3)cc1Cl [Compound H, 2-acetyl-10-[(3-chloro-4-methoxybenzyl)amino]-1,2,3,4-tetrahydrobenzo[b][1,6]naphthyridine-8-carbonitrile]
effect on potentiation in WT slices [1]: no effect
residual potentiation (fEPSP slope, percentage of baseline) [2]: 226.23%±6.72
errors in the last trial of the 2-day RAWM test (APP/PS1 mice [3]; [9]): 1 to 2 errors
errors in the 2-day RAWM test (APP/PS1 mice [3]; [10]): ~1 error
freezing, contextual fear memory 24 hrs after shock (APP/PS1 mice [4]; [9]): ~30%
freezing, contextual memory (APP/PS1 mice [4]; [10]): ~40%
t½ (elimination half-life) ([5]; Brain): 39 min
t½ (elimination half-life) ([5]; Plasma): 64.2 min
Cmax ([5]; male, C57B16, mouse, ip, Brain): 492 ng/g
half-life ([5]; male, C57B16, mouse, ip, Brain): 39 min
half-life ([5]; male, C57B16, mouse, ip, Plasma): 64.2 min
brain sections, CD45 immunostain [6]: no signs of inflammation
brain sections, GFAP immunostain [6]: no signs of gliosis
brain sections, H&E [6]: did not show any signs of toxicity
brain sections, LFB-PAS stain [6]: no signs of demyelination
kidney sections, H&E staining [6]: no toxicity
kidney sections, PAS staining [6]: did not show any abnormalities in the glomerular basement membrane
kidney sections, trichrome staining [6]: no fibrosis
liver sections, H&E staining [6]: did not show any signs of toxicity
liver sections, trichrome stain [6]: no fibrosis or cirrhotic liver disease
muscle sections, H&E [6]: no signs of toxicity
muscle sections, trichrome stain [6]: no muscle fibrosis
neurotoxicity in the brain [6]: no signs of neurotoxicity

[2H]C([2H])(Nc1c2c(nc3ccc(C#N)cc13)CCN(C(C)=O)C2)c1ccc(OC)c(Cl)c1 [U]
number of metabolites formed [7]: 1

CCCc1nn(C)c2c(=O)[nH]c(-c3cc(S(=O)(=O)N4CCN(C)CC4)ccc3OCC)nc12 [sildenafil]
effects on synaptic and cognitive abnormalities (APP/PS1 mice [8]): prolonged beneficial effects
